Experiment: cn = amount concentration of the nth substance listed, in mol/dm3
Settings: 298.15 K, 101 kPa, Liquid, Direct current cell with electrodes

CCCCCC[n+]1ccn(C)c1.O=S(=O)([N-]S(=O)(=O)C(F)(F)F)C(F)(F)F + ClCCl
Settings	molar conductivity [S·m2/mol]
c1 = 3.872e-05	0.004826
c1 = 7.796e-05	0.003727
c1 = 0.0001134	0.003224
c1 = 0.0001471	0.002907
c1 = 0.0001812	0.002674
c1 = 0.000212	0.00251
c1 = 0.0002454	0.002365
c1 = 0.0002746	0.002261
c1 = 0.0003046	0.002169
c1 = 0.0003313	0.002097

CCCC[n+]1ccn(C)c1.O=S(=O)([N-]S(=O)(=O)C(F)(F)F)C(F)(F)F + ClCCl
Settings	molar conductivity [S·m2/mol]
c1 = 3.993e-05	0.005031
c1 = 7.416e-05	0.004
c1 = 0.0001094	0.00344
c1 = 0.0001439	0.003085
c1 = 0.0001819	0.002807
c1 = 0.0002096	0.002651
c1 = 0.0002378	0.002519
c1 = 0.0002686	0.002394
c1 = 0.000298	0.002296
c1 = 0.0003273	0.002211

CC[N+](CC)(CC)CC.F[B-](F)(F)F [tetraethylammonium tetrafluoroborate] + ClCCl
Settings	molar conductivity [S·m2/mol]
c1 = 5.65e-05	0.006094
c1 = 0.000125	0.004646
c1 = 0.0002055	0.003888
c1 = 0.0002819	0.003459
c1 = 0.0003766	0.003101
c1 = 0.0004713	0.002847
c1 = 0.0005736	0.002643
c1 = 0.0006991	0.00245
c1 = 0.0007981	0.00233
c1 = 0.0008975	0.002227

CCCCCCCC[n+]1ccn(C)c1.F[B-](F)(F)F [1-methyl-3-octylimidazolium tetrafluoroborate] + ClCCl
Settings	molar conductivity [S·m2/mol]
c1 = 7.212e-05	0.002781
c1 = 0.0001299	0.002171
c1 = 0.000219	0.001735
c1 = 0.0002957	0.001524
c1 = 0.0003827	0.001364
c1 = 0.0004665	0.001253
c1 = 0.0005719	0.001149
c1 = 0.0006901	0.001061
c1 = 0.0008223	0.000986
c1 = 0.0009584	0.0009257

CCCCCCn1cc[n+](C)c1.F[P-](F)(F)(F)(F)F [1-hexyl-3-methylimidazolium hexafluorophosphate] + ClCCl
Settings	molar conductivity [S·m2/mol]
c1 = 2.071e-05	0.005749
c1 = 5.447e-05	0.004058
c1 = 8.254e-05	0.003448
c1 = 0.0001144	0.003025
c1 = 0.000155	0.002673
c1 = 0.0002089	0.002363
c1 = 0.0002627	0.002148
c1 = 0.0003123	0.001996
c1 = 0.0003903	0.001821
c1 = 0.0004551	0.00171

CCCCCCn1cc[n+](C)c1.F[B-](F)(F)F [1-hexyl-3-methylimidazolium tetrafluoroborate] + ClCCl
Settings	molar conductivity [S·m2/mol]
c1 = 5.56e-05	0.003176
c1 = 0.000168	0.001993
c1 = 0.000301	0.001551
c1 = 0.0004416	0.001315
c1 = 0.0005288	0.001218
c1 = 0.0006627	0.001107
c1 = 0.0007566	0.001048
c1 = 0.0009189	0.0009669
c1 = 0.001094	0.0009009
c1 = 0.001243	0.000856

CCCCn1cc[n+](C)c1C.F[P-](F)(F)(F)(F)F [1-butyl-2,3-dimethylimidazolium hexafluorophosphate] + ClCCl
Settings	molar conductivity [S·m2/mol]
c1 = 4.824e-05	0.006815
c1 = 9.247e-05	0.00553
c1 = 0.0001694	0.004468
c1 = 0.0002351	0.003966
c1 = 0.0003147	0.003557
c1 = 0.0003984	0.003254
c1 = 0.0004826	0.003028
c1 = 0.0005864	0.002809
c1 = 0.0007039	0.002623
c1 = 0.0008092	0.002481

CCCCn1cc[n+](C)c1C.F[B-](F)(F)F [1-butyl-2,3-dimethylimidazolium tetrafluoroborate] + ClCCl
Settings	molar conductivity [S·m2/mol]
c1 = 4.614e-05	0.006049
c1 = 9.614e-05	0.0047
c1 = 0.0001552	0.003942
c1 = 0.0002185	0.003459
c1 = 0.0002763	0.003161
c1 = 0.0003472	0.002891
c1 = 0.0004196	0.002684
c1 = 0.0005021	0.002502
c1 = 0.0005985	0.002336
c1 = 0.0006827	0.00222

CCCCCCCCn1cc[n+](C)c1.O=S(=O)([N-]S(=O)(=O)C(F)(F)F)C(F)(F)F + ClCCl
Settings	molar conductivity [S·m2/mol]
c1 = 1.807e-05	0.005919
c1 = 4.306e-05	0.004426
c1 = 7.895e-05	0.003536
c1 = 0.0001156	0.003048
c1 = 0.0001516	0.002738
c1 = 0.0001934	0.002482
c1 = 0.0002361	0.002291
c1 = 0.0002758	0.002153
c1 = 0.000322	0.002022
c1 = 0.000369	0.001913

CC[N+](CC)(CC)CC.F[P-](F)(F)(F)(F)F [tetraethylammonium hexafluorophosphate] + ClCCl
Settings	molar conductivity [S·m2/mol]
c1 = 2.991e-05	0.008681
c1 = 7.038e-05	0.00678
c1 = 0.0001289	0.005542
c1 = 0.0001812	0.004911
c1 = 0.0002384	0.004448
c1 = 0.0002993	0.00409
c1 = 0.0003669	0.003794
c1 = 0.0004231	0.003599
c1 = 0.000508	0.003365
c1 = 0.0006057	0.003153

CCCCCCCC[n+]1ccn(C)c1.F[P-](F)(F)(F)(F)F [1-octyl-3-methylimidazolium hexafluorophosphate] + ClCCl
Settings	molar conductivity [S·m2/mol]
c1 = 2.186e-05	0.005349
c1 = 5.202e-05	0.003925
c1 = 8.128e-05	0.003298
c1 = 0.0001312	0.002717
c1 = 0.0001741	0.00242
c1 = 0.000228	0.002164
c1 = 0.0002847	0.001973
c1 = 0.00035	0.00181
c1 = 0.0004112	0.001693
c1 = 0.000468	0.001605

C[N+](C)(C)C.O=S(=O)([N-]S(=O)(=O)C(F)(F)F)C(F)(F)F [tetramethylammonium bis[(trifluoromethyl)sulfonyl]imide] + ClCCl
Settings	molar conductivity [S·m2/mol]
c1 = 1.807e-05	0.006904
c1 = 4.669e-05	0.005019
c1 = 8.293e-05	0.004043
c1 = 0.0001225	0.003465
c1 = 0.0001669	0.003057
c1 = 0.000209	0.002792
c1 = 0.0002676	0.002521
c1 = 0.0003329	0.002305
c1 = 0.0004062	0.002123
c1 = 0.0004962	0.001957

CCCCn1cc[n+](C)c1C.O=S(=O)([N-]S(=O)(=O)C(F)(F)F)C(F)(F)F + ClCCl
Settings	molar conductivity [S·m2/mol]
c1 = 1.989e-05	0.008834
c1 = 6.027e-05	0.006684
c1 = 9.148e-05	0.005885
c1 = 0.000124	0.005336
c1 = 0.0001564	0.004935
c1 = 0.0001888	0.004628
c1 = 0.0002366	0.004278
c1 = 0.0002859	0.004001
c1 = 0.0003299	0.003802
c1 = 0.0003742	0.003634

CCCC[N+](CCCC)(CCCC)CCCC.O=S(=O)([N-]S(=O)(=O)C(F)(F)F)C(F)(F)F [tetrabutylammonium bis[(trifluoromethyl)sulfonyl]imide] + ClCCl
Settings	molar conductivity [S·m2/mol]
c1 = 3.138e-05	0.007892
c1 = 6.11e-05	0.006903
c1 = 0.0001374	0.005603
c1 = 0.0001725	0.00525
c1 = 0.0002161	0.00489
c1 = 0.0002632	0.004603
c1 = 0.0003161	0.004342
c1 = 0.0003672	0.004133
c1 = 0.0004141	0.003988

CCCCn1cc[n+](C)c1.F[P-](F)(F)(F)(F)F [1-butyl-3-methylimidazolium hexafluorophosphate] + ClCCl
Settings	molar conductivity [S·m2/mol]
c1 = 6.999e-05	0.003807
c1 = 0.0001329	0.002948
c1 = 0.0001743	0.002637
c1 = 0.0002133	0.002425
c1 = 0.0002543	0.002259
c1 = 0.0003123	0.002073
c1 = 0.0003665	0.001941
c1 = 0.0004379	0.001804
c1 = 0.0005447	0.001647
c1 = 0.0006393	0.001541

CC[N+](CC)(CC)CC.O=S(=O)([N-]S(=O)(=O)C(F)(F)F)C(F)(F)F [tetraethylammonium bis[(trifluoromethyl)sulfonyl]imide] + ClCCl
Settings	molar conductivity [S·m2/mol]
c1 = 2.423e-05	0.009105
c1 = 5.571e-05	0.007427
c1 = 9.604e-05	0.006311
c1 = 0.0001485	0.005431
c1 = 0.0001889	0.005043
c1 = 0.0002419	0.004629
c1 = 0.0002877	0.004339
c1 = 0.0004028	0.003882
c1 = 0.0004632	0.003716

CCCCn1cc[n+](C)c1.F[B-](F)(F)F [1-butyl-3-methylimidazolium tetrafluoroborate] + ClCCl
Settings	molar conductivity [S·m2/mol]
c1 = 4.455e-05	0.003701
c1 = 0.0001304	0.002353
c1 = 0.0002072	0.001927
c1 = 0.0002805	0.001689
c1 = 0.0003592	0.00152
c1 = 0.0004262	0.001412
c1 = 0.0005183	0.001299
c1 = 0.000625	0.0012
c1 = 0.0007268	0.001127
c1 = 0.0008458	0.001058

From the NIST ThermoML archive (doi:10.1021/je800152d)
